# Like-named read-outs stand apart in the source and are kept apart here. Marks after values point to notes of the source that are not given here.
# Experiments:
# SARS-CoV-2 = SARS-CoV-2 assay in A549-ACE2 cells; format: cell-based; conditions: Severe acute respiratory syndrome coronavirus 2, triplicate, read-out: SARS-CoV-2 pIC50 (converted)
# [1] = CellTiter-Glo cytotoxicity assay; format: cell-based, Human; conditions: human, A549-ACE2 cells, 48 h, CellTiter-Glo, quadruplicate
# Procedure: A549-ACE2 cells were maintained in low-glucose DMEM (Gibco, Waltham, MA, USA) supplemented with 10% FBS, 1% NEAA, and 1% L-glutamine. No antibiotics were used. Cells were plated at 2000 cells/well in a 384-well plate (Costar, Glendale, AZ, USA) and incubated overnight (37 °C, 5% CO2) before adding the compound. Compounds were added in quadruplicate and incubated for 48 h. DMSO percentage was constant across all concentrations of the compound. Cell viability was measured using CellTiter-Glo2 (Promega, Madison, WI, USA) and the luminescence signal was read on a GloMax plate reader (Promega, Madison, WI, USA). Dose–response analysis was performed using GraphPad Prism.
# [2] = Liver microsomal stability, human; format: in vitro ADME; conditions: pH 7.4, human liver microsomes, five time points over 1 h, read-out: HLM CLint
# [3] = Hepatocyte stability, human; format: in vitro ADME; conditions: cryopreserved hepatocytes, over 2 h
# Procedure: Human cryopreserved hepatocytes were supplied by BioIVT (lot QZW, 10 pooled donors, Westbury, NY, USA). Mouse cryopreserved hepatocytes were supplied by BioIVT (lot ZPG, pooled male CD-1). Vials of cryopreserved hepatocytes were removed from storage and thawed in a 37 °C water bath with gentle shaking, and then the contents were poured into a 50 mL thawing medium conical tube. Vials were centrifuged at 100× g for 10 min at room temperature. The thawing medium was aspirated, and hepatocytes were resuspended with a serum-free incubation medium to yield ~1.5 × 10^6 cells/mL. Cell viability and density were counted using AO/PI fluorescence staining, and then cells were diluted with a serum-free incubation medium to a working cell density of 0.5 × 10^6 viable cells/mL. Aliquots of 198 μL of hepatocytes were dispensed into each well of a 96-well noncoated plate. The plate was placed in an incubator for approximately 10 min. […] Peak areas were determined from extracted ion chromatograms, and the slope value, k, was determined by linear regression of the natural logarithm of the remaining percentage of the parent drug vs. incubation time curve. The intrinsic clearance (CLint in μL/min/10^6 cells) was calculated using the relationship CLint = kV/N, where V is the incubation volume (0.2 mL) and N is the number of hepatocytes per well (0.1 × 10^6 cells). […]
# CSNK2A1 = molecular target: T1, CSNK2A1 (Homo sapiens, UniProt P68400); set-up: method as in PMID 37901516; conditions: NanoBRET; cited from earlier work
# T1 construct: expressed in transfected cells; host or cells: HEK293
# T1 sequence (P68400 whole entry): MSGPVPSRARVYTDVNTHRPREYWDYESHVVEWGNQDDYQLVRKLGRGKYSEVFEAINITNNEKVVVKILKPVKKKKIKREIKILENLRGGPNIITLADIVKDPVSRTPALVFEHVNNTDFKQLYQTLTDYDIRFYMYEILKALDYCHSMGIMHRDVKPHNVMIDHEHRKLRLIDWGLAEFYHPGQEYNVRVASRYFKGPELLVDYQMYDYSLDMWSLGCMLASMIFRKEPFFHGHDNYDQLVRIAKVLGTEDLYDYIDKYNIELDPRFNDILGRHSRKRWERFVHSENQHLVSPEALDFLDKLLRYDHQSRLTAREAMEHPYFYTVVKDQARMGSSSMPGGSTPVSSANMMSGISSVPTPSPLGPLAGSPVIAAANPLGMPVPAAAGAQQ
# CSNK2A2 = molecular target: T2, CSNK2A2 (Homo sapiens, UniProt P19784); set-up: method as in PMID 37901516; conditions: NanoBRET; cited from earlier work
# T2 construct: expressed in transfected cells; host or cells: HEK293
# T2 sequence (P19784 whole entry): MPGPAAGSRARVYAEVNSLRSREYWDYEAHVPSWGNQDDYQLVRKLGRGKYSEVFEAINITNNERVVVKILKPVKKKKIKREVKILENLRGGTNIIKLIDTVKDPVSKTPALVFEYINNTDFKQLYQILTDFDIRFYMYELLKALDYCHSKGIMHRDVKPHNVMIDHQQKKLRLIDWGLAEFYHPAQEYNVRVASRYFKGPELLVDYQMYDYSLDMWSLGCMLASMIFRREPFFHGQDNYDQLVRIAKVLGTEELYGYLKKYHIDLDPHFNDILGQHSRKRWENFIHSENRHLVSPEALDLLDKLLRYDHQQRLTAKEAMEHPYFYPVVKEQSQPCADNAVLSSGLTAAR
# [4] = tested on: mouse hepatitis virus (MHV); set-up: method as in PMID 37901516; conditions: cited from earlier work
# [5] = cited from earlier work
# [6] = cited from earlier work; remark: listed apart in the source
# [7] = cited from earlier work; remark: listed apart in the source
# [8] = tested on: mouse hepatitis virus (MHV); experiment: MHV assay (MHV-nLuc in DBT cells); conditions: read-out: IC50 for the assay; MHV-nLuc, DBT cells; positive control
# Procedure: DBT cells were cultured at 37 °C in Dulbecco’s modified Eagle medium (DMEM; Sigma-Aldrich, St. Louis, MO, USA) supplemented with 10% fetal bovine serum (FBS; Avantor, Randor, PA, USA) and penicillin and streptomycin (Sigma-Aldrich, St. Louis, MO, USA). DBT cells were plated in 96-well plates to be 80% confluent at the start of the assay. Test compounds or positive control EIDD-1931 were diluted to 15 μM in DMEM. Serial 4-fold dilutions were made in DMEM, providing a concentration range of 15–0.22 μM. Media were aspirated from the DBT cells, and 100 μL of the diluted test compounds was added to the cells for 1 h at 37 °C. After 1 h, MHV-nLuc5 was added at an MOI of 0.1 in 50 μL of DMEM so that the final concentration of the first dilution of the compound was 10 μM (T = 0). After 10 h, the media were aspirated, and the cells were washed with PBS and lysed with passive lysis 5X buffer (Promega, Madison, WI, USA) for 20 min at room temperature. Relative light units (RLUs) were measured using a luminometer (Promega; GloMax, Madison, WI, USA). Triplicate data were analyzed in GraphPad Prism version 9.4.1 for macOS to generate IC50 values.
# [9] = cited from earlier work; remark: listed apart in the source
smiles,measurement,setting,value
CCC(=O)Nc1cc(Nc2cc(NC3CC3)n3ncc(C#N)c3n2)ccc1N1CCC[C@H](NC)C1 [Compound 1],IC50,SARS-CoV-2,631 nM
same,"viability at 48 h, 0.1 µM",[1]; 0.1 μM,100%
same,"viability at 48 h, 1 µM",[1]; 1.0 μM,79%
same,CLint scaled at 5 μM,[2],12.5 mL/min/kg
same,CLint scaled at 1 μM,[3],4.1 mL/min/kg
same,CSNK2A1 pIC50,CSNK2A1,7.6 ^f
same,CSNK2A2 pIC50,CSNK2A2,7.7 ^f
same,MHV pIC50,[4],6.9 ^f
same,Kinetic Solubility,[5]; pH 7.4,71 ^f μg/mL
same,AUClast,"[6]; mouse plasma, 10 mg/kg i.p.",7.01 µM·h
same,Cmax,"[6]; mouse plasma, 10 mg/kg i.p.",4.71 µM
same,Tmax,"[6]; mouse plasma, 10 mg/kg i.p.",15 min
same,t1/2,"[6]; mouse, in vivo, ip, 10 mg/kg",1.2 h
same,AUClast,"[6]; mouse, in vivo, iv, 1 mg/kg",1.4 µM·h
same,Vdss,"[6]; mouse, in vivo, iv, 1 mg/kg",2.6 L/kg
same,t1/2,"[6]; mouse, in vivo, iv, 1 mg/kg",1.3 h
same,Mouse Hepatocytes CLint,[7],143 mL/min/kg
"O=c1nc(NO)ccn1[C@@H]1O[C@H](CO)[C@@H](O)[C@H]1O [EIDD-1931, reference compound]",IC50,[8],1200 nM
"CCC(=O)Nc1cc(Nc2cc(NC3CC3)n3ncc(C#N)c3n2)ccc1C [SGC-CK2-1, reference compound]",stability in mouse liver microsomes,[9],poor stability in mouse liver microsomes
same,solubility,[5],poor solubility

# Reference: article PMC11397024, “Strategic Fluorination to Achieve a Potent, Selective, Metabolically Stable, and Orally Bioavailable Inhibitor of CSNK2” (Molecules, 2024)
